The values below come from PMC6838683, “Discovery of Human Signaling Systems: Pairing Peptides to G Protein-Coupled Receptors” (Cell, 2019).

Numbering of substitutions follows the chain as printed. Like-named read-outs stand apart in the source and are kept apart here. Residues, ends and D or L forms follow the SMILES beside them.

Experiment [1] addresses T1, GPR1 (Homo sapiens, UniProt P46091).
T1 sequence (P46091 1-355): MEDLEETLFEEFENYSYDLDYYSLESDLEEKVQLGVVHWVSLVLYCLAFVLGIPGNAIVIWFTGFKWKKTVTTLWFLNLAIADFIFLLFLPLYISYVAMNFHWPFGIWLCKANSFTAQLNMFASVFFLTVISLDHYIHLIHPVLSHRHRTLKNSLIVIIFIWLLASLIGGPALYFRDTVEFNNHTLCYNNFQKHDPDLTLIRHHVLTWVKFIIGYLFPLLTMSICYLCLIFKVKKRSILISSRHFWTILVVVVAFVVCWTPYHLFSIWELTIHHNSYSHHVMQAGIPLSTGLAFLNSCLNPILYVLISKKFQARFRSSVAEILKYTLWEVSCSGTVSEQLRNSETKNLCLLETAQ
Description: β-arrestin recruitment (Tango), validation. Type of experiment: cell-based. Details: host or cells: HTLA cells (HEK293-derived). (In general: Recruitment of arrestin is a read-out of receptor activation apart from second messengers.)

Experiment [2] addresses T1, GPR1. Description: β-arrestin recruitment (PathHunter). Type of experiment: cell-based. Particulars: receptor GPR1; mean, SEM and n (2-3); read-out: b-arrestin recruitment assays (PathHunter) pEC50 (converted). Here is the method: PathHunter eXpress Assays (DiscoverX) were performed in 384-well format according to the manufacturer’s recommendations. GPR1 cells were incubated with peptides for 90 min and luminescence measured using an EnSpire 2300 Multimode plate reader (PerkinElmer).

Experiment [3] has as its system 120 GPCR targets, including all available orphan receptors and 27 known class A peptide receptors. Description: Peptide library screen, β-arrestin recruitment (Tango, fold change, 10 μM). Type of experiment: cell-based, human. The note with it: for Active at: (activity in b-arrestin recruitment assays): Tango, receptor(s) at which the known library peptide was active, among its known GPCR target(s), validated pairings; for Confirmation of known target in Tango: repeat hitters of the peptide library screen, the value names the known receptor(s) confirmed in the β-arrestin recruitment (Tango) screen. As for the experimental part:
The peptide library was additionally screened against 120 GPCR targets in parallel, including all available orphan receptors and 27 known class A peptide receptors using the Tango assay platform ([Kroeze et al., 2015]). Briefly, HTLA cells (a HEK293 cell line stably expressing a tTA-dependent luciferase reporter and a β-arrestin2-TEV fusion gene) were plated 10,000 cells/well in poly-L-lysine–coated clear-bottom white 384-well plates in DMEM supplemented with 10% FBS, 100 U/ml penicillin and 100 μg/ml streptomycin, 2 μg/ml puromycin and 100 μg/ml hygromycin B. 24 hr later, cells were transfected with Tango GPCR constructs using the calcium phosphate method ([Jordan et al., 1996]). The next day, culture medium was changed to DMEM + 1% dFBS and 10 μM peptides were added for overnight stimulation. Bright-Glo solution (Promega) was incubated for 15–20 min at room temperature, and luminescence was counted using a Trilux luminescence counter (Wallac).

For a further experiment, the target named is human GPCRs. Also noted: method as in Guide to Pharmacology database. Particulars: max reported value, ref Guide to Pharmacology database, cited from earlier work; for pEC50_value: receptor XCR1 (xcr1_human, P46094). The source says: Supplement mmc1.xlsx, sheet "HumanGPCRLigands" | column: pKi_value; pKd_value; pEC50_value; pIC50_value
Setting [4] is: receptor GPR1, mean, SEM and n (2-3), read-out: b-arrestin recruitment assays (Tango) pEC50 (converted).
Where [5] appears, read: receptor PROKR1 (pkr1_human, Q8TCW9).
[6] abbreviates: receptor PROKR2 (pkr2_human, Q8NFJ6).

Take `CC(C)C[C@H](NC(=O)[C@H](CCCNC(=N)N)NC(=O)[C@H](CC(=O)O)NC(=O)[C@H](CC(C)C)NC(=O)[C@@H]1CCCN1C(=O)[C@H](CO)NC(=O)CNC(=O)[C@H](Cc1ccccc1)NC(=O)CNC(=O)[C@H](CO)NC(=O)[C@H](Cc1ccccc1)NC(=O)[C@H](CO)NC(=O)[C@H](CCCNC(=N)N)NC(=O)[C@@H](N)CCCCN)C(=O)N[C@@H](CO)C(=O)N[C@@H](C)C(=O)NCC(=O)N[C@@H](CO)C(=O)N[C@H](C(=O)N[C@@H](CC(=O)O)C(=O)N[C@@H](Cc1c[nH]cn1)C(=O)N[C@@H](CCCCN)C(N)=O)C(C)C` [141 resynthesized] (H-KRSFSGFGSPLDRLSAGSVDHK-NH2): the values for the EC50 on GPR1 [1] (setting [4]) and at GPR1 [2] were 5.01 µM and 0.661 µM, respectively. In the same order, the values of `CC[C@H](C)[C@H](NC(=O)[C@H](CCCNC(=N)N)NC(=O)[C@H](Cc1c[nH]cn1)NC(=O)[C@H](CO)NC(=O)[C@@H]1CCCN1C(=O)[C@H](CC(=O)O)NC(=O)[C@H](CC(C)C)NC(=O)[C@H](CC(N)=O)NC(=O)[C@H](CCC(N)=O)NC(=O)[C@H](CC(C)C)NC(=O)[C@H](CC(N)=O)NC(=O)[C@H](CCCCN)NC(=O)[C@@H](NC(=O)[C@@H](NC(=O)[C@H](CO)NC(=O)[C@H](CCSC)NC(=O)[C@H](CCCNC(=N)N)NC(=O)CNC(=O)[C@H](CO)NC(=O)[C@@H]1CCCN1C(=O)[C@H](C)NC(=O)[C@@H](N)CCCCN)[C@@H](C)CC)C(C)C)C(=O)N[C@@H](CO)C(=O)N[C@@H](CC(=O)O)C(=O)N[C@@H](CCCNC(=N)N)C(=O)N[C@@H](CC(=O)O)C(=O)N[C@@H](Cc1ccc(O)cc1)C(=O)N[C@@H](CCSC)C(=O)NCC(=O)N[C@@H](Cc1c[nH]c2ccccc12)C(=O)N[C@@H](CCSC)C(=O)N[C@@H](CC(=O)O)C(=O)N[C@@H](Cc1ccccc1)C(N)=O` [194 original] (H-KAPSGRMSIVKNLQNLDPSHRISDRDYMGWMDF-NH2) are 5.25 µM and 0.00977 µM. As to `CC(C)C[C@H](NC(=O)[C@H](CCCNC(=N)N)NC(=O)[C@H](CC(=O)O)NC(=O)[C@H](CC(C)C)NC(=O)[C@@H]1CCCN1C(=O)[C@H](CO)NC(=O)CNC(=O)[C@H](Cc1ccccc1)NC(=O)CNC(=O)[C@H](CO)NC(=O)[C@H](Cc1ccccc1)NC(=O)[C@H](CO)NC(=O)[C@H](CCCNC(=N)N)NC(=O)[C@@H](N)CCCCN)C(=O)N[C@@H](CO)C(=O)N[C@@H](C)C(=O)NCC(=O)N[C@@H](CO)C(=O)N[C@H](C(=O)N[C@@H](CC(=O)O)C(=O)N[C@@H](Cc1c[nH]cn1)C(=O)N[C@@H](CCCCN)C(N)=O)C(C)C` [Peptide 141] (H-KRSFSGFGSPLDRLSAGSVDHK-NH2), the EC50 at GPR1 [1] (HTLA cells transiently transfected, overnight stimulation, luciferase, mean ± SEM of 3-4 independent experiments in triplicate, read-out: pEC50, β-arrestin recruitment (Tango), GPR1 (converted)) was 2.51 µM. Take AADHDVGSELPPEGVLGALLRV [Peptide 146]: the “Active at: (activity in b-arrestin recruitment assays)” value in experiment [3] is recorded as “GPR83”.

Consider CYFQNCPRG (disulfide) [Peptide 44], for which, in experiment [3], the “Active at: (activity in b-arrestin recruitment assays)” value is listed as “V1a V1b V2 OT”. With CYIQNCPLG (disulfide) [Peptide 45], the “Active at: (activity in b-arrestin recruitment assays)” value in experiment [3] was “V1a V2 OT”. Still for that read-out and setting: the value for DEGPYRMEHFRWGSPPKD [Peptide 126] was “MC4R”.

For FGGFTGARKSARKLANQ [Peptide 120], in experiment [3], the “Active at: (activity in b-arrestin recruitment assays)” value is “NOP”. On the same count and under the same terms, next, FRVDEEFQSPFASQSRGYFLFRPRN [Peptide 159]: “NMUR1”. For the molecule FVPIFTYGELQRMQEKERNKGQ [Peptide 145], in experiment [3], the “Active at: (activity in b-arrestin recruitment assays)” value is listed as “MLNR” and the “Confirmation of known target in Tango” value is on record as “Motilin receptor”.

Take “ILQRGSGTAAVDFTKKDHTATWGRPFFLFRPRN [Peptide 195]”: in experiment [3], the “Active at: (activity in b-arrestin recruitment assays)” value is “NMUR1, NMUR2” and the “Confirmation of known target in Tango” value is “NMUR1”.

Regarding KRSFSGFGSPLDRLSAGSVDHK [141 original], the “b-arrestin recruitment assays (Tango) Emax (fold change)” value at GPR1 [1] (receptor GPR1, mean, SEM and n (2-3)) is 14.4 fold change. In the case of SYSMEHFRWGKPV [Peptide 93], the “Active at: (activity in b-arrestin recruitment assays)” value in experiment [3] is listed as “MC4R”. Same read-out and setting: the value for VPNLPQRF [Peptide 29] was “NPFF1”. Still for that read-out and setting: the value for WYKPAAGHSSYSVGRAAGLLSGL [Peptide 152] was “NPBW1”. For YGGFL [Peptide 14], in experiment [3], the “Active at: (activity in b-arrestin recruitment assays)” value is recorded as “Inactive”.

With YGGFLRKYP [Peptide 46], the “Active at: (activity in b-arrestin recruitment assays)” value in experiment [3] is on record as “Kappa”. Still for that read-out and setting: the value for “YGGFMTSEKSQTPLVTLFKNAIIKNAYKKGE [Peptide 182]” was “kappa, mu”; that for YVMGHFRWDRF [Peptide 74] was “MC4R”.

B1: CXCL16 (protein, UniProt Q9H2A7 30-254, looked up)
C-X-C motif chemokine 16: NEGSVTGSCYCGKRISSDSPPSVQFMNRLRKHLRAYHRCLYYTRFQLLSWSVCGGNKDPWVQELMSCLDLKECGHAYSGIVAHQKHLLPTSPPISQASEGASSDIHTPAQMLLSTLQSTQRPTLPVGSLSSDKELTRPNETTIHTAGHSLAAGPEAGENQKQPEKNAGPTARTSATVPVLCLLAIIFILTAALSYVLCKRRRGQSPQSSPDLPVHYIPVAPDSNT
Regarding B1, the pKd_value on human GPCRs (receptor CXCR6 (cxcr6_human, O00574)) is listed as 9.

B2: XCL1 (protein, UniProt P47992 22-114, looked up)
Lymphotactin: VGSEVSDKRTCVSLTTQRLPVSRIKTYTITEGSLRAVIFITKRGLKVCADPQATWVRDVVRSMDRKSNTRNNMIQTKPTGTQQSTNTAVTLTG
Regarding B2, in the experiment with human GPCRs, the pEC50_value was 7.3.

B3: XCL2 (protein, UniProt Q9UBD3 22-114, looked up)
Cytokine SCM-1 beta: B2 Lymphotactin with D7H, K8R
For B3, the pEC50_value in the experiment with human GPCRs is 7.3.

B4: CCL21 (protein, UniProt O00585 24-134, looked up)
C-C motif chemokine 21: SDGGAQDCCLKYSQRKIPAKVVRSYRKQEPSLGCSIPAILFLPRKRSQAELCADPKELWVQQLMQHLDKTPSPQKPAQGCRKDRGASKTGKKGKGSKGCKRTERSQTPKGP
For the molecule B4, the pIC50_value with human GPCRs (receptor CCR7 (ccr7_human, P32248)) was 9.3.

B5: CX3CL1 (protein, UniProt P78423 25-397, looked up)
Fractalkine: QHHGVTKCNITCSKMTSKIPVALLIHYQQNQASCGKRAIILETRQHRLFCADPKEQWVKDAMQHLDRQAAALTRNGGTFEKQIGEVKPRTTPAAGGMDESVVLEPEATGESSSLEPTPSSQEAQRALGTSPELPTGVTGSSGTRLPPTPKAQDGGPVGTELFRVPPVSTAATWQSSAPHQPGPSLWAEAKTSEAPSTQDPSTQASTASSPAPEENAPSEGQRVWGQGQSPRPENSLEREEMGPVPAHTDAFQDWGPGSMAHVSVVPVSSEGTPSREPVASGSWTPKAEEPIHATMDPQRLGVLITPVPDAQAATRRQAVGLLAFLGLLFCLGVAMFTYQSLQGCPRKMAGEMAEGLRYIPRSCGSNSYVLVPV
As to B5, in the experiment on human GPCRs (receptor CX3CR1 (cx3c1_human, P49238)), the pIC50_value is recorded as 8.9.

B6: prokineticin-2 (protein, UniProt Q9HC23 28-129, looked up)
Prokineticin-2: AVITGACDKDSQCGGGMCCAVSIWVKSIRICTPMGKLGDSCHPLTRKNNFGNGRQERRKRKRSKRKKEVPFFGRRMHHTCPCLPGLACLRTSFNRFICLAQK
With B6, the figures for the pIC50_value in the experiment on human GPCRs (setting [5]) and in the experiment on human GPCRs (setting [6]) were 8.4 and 8.2, respectively.

B7: CCL1 (protein, UniProt P22362 24-96, looked up)
C-C motif chemokine 1: KSMQVPFSRCCFSFAEQEIPLRAILCYRNTSSICSNEGLIFKLKRGKEACALDTVGWVQRHRKMLRHCPSKRK
B7: the pIC50_value with human GPCRs (receptor CCR8 (ccr8_human, P51685)) is given as 9.8.

B8: prokineticin-1 (protein, UniProt P58294 20-105, looked up)
Prokineticin-1: AVITGACERDVQCGAGTCCAISLWLRGLRMCTPLGREGEECHPGSHKVPFFRKRKHHTCPCLPNLLCSRFPDGRYRCSMDLKNINF
For B8, the pIC50_value with human GPCRs (setting [5]) is 7.6; in the experiment with human GPCRs (setting [6]) it was 7.3.
